{
  "source": "ChEMBL document CHEMBL3603768",
  "about": "“Identification of 2-[2-(4-tert-butylphenyl)ethyl]-N-(4-fluorophenyl)-1,2,3,4-tetrahydroisoquinoline-6-sulfonamide (29) as an orally available MGAT2 inhibitor” (Bioorg Med Chem, 2015)",
  "key": {"[1]": {"target": "2-acylglycerol O-acyltransferase 2 (Homo sapiens, UniProt Q3SYC2)", "sequence (Q3SYC2 whole entry)": "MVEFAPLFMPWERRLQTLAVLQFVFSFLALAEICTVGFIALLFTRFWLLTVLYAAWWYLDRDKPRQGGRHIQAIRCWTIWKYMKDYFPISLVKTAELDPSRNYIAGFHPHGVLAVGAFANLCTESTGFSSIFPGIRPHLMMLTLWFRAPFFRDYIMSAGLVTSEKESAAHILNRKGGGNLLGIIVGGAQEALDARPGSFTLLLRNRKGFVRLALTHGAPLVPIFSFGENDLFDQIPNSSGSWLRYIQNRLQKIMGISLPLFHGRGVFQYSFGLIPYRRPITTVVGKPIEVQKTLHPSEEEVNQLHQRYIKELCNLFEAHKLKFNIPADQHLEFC", "assay": "Inhibition of human recombinant MGAT2 assessed as reduction in enzyme-mediated deacylation of oleoyl-CoA incubated for 20 mins by CPM dye based fluorescence assay"}, "[2]": {"target": "2-acylglycerol O-acyltransferase 2 (Mus musculus, UniProt Q80W94)", "sequence (Q80W94 whole entry)": "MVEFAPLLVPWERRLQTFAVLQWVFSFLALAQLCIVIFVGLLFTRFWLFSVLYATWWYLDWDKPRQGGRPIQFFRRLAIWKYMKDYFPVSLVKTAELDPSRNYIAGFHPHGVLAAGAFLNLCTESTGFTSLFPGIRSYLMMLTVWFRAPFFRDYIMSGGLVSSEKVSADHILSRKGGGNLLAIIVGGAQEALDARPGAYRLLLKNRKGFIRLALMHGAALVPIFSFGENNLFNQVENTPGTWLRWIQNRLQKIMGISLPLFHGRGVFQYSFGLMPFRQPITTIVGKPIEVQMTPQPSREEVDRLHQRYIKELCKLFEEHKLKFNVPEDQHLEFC", "assay": "Inhibition of mouse recombinant MGAT2 assessed as reduction in enzyme-mediated deacylation of oleoyl-CoA incubated for 20 mins by CPM dye based fluorescence assay"}, "[3]": {"assay": "Solubility in water", "type": "physicochemical"}, "[4]": {"assay": "Solubility in FeSSIF solution at pH 5.0", "type": "physicochemical"}, "[5]": {"assay": "Drug metabolism in human liver microsomes incubated for 15 mins", "type": "ADME", "conditions": "read-out: Drug metabolism"}, "[6]": {"assay": "Drug metabolism in mouse liver microsomes incubated for 15 mins", "type": "ADME", "conditions": "read-out: Drug metabolism"}, "[7]": {"assay": "Cmax in mouse at 100 mg/kg, po", "type": "ADME, organism-based", "set-up": "dose 100 mg/kg, route oral", "conditions": "in vivo"}, "[8]": {"assay": "AUC (0 to 4 hrs) in mouse at 100 mg/kg, po", "type": "ADME, organism-based", "set-up": "dose 100 mg/kg, time < 4 hr, route oral", "conditions": "in vivo"}, "Mus musculus": {"tested_on": "Mus musculus", "assay": "Inhibition of fat absorption in mouse assessed as reduction in plasma triglyceride AUC (0 to 4 hrs) level at 100 mg/kg, po by oral lipid tolerance test", "type": "functional"}},
  "data": [
    {"smiles": "CCCOc1cc(F)ccc1NS(=O)(=O)c1ccc2c(c1)CN(C(=O)Nc1ccc(C(C)(C)C)cc1)C2", "values": [
      {"measurement": "IC50", "setting": "[1]", "value": 2.3, "unit": "µM"}
    ]},
    {"smiles": "CC(C)(C)c1ccc(CCN2CCc3ccc(S(=O)(=O)Nc4ccc(F)cc4)cc3C2)cc1", "values": [
      {"measurement": "IC50", "setting": "[1]", "value": 3.06, "unit": "µM"}
    ]},
    {"smiles": "CCCOc1ccc(NS(=O)(=O)c2ccc3c(c2)CN(C(=O)Nc2ccc(C(C)(C)C)cc2)C3)c(F)c1", "values": [
      {"measurement": "IC50", "setting": "[1]", "value": 1.98, "unit": "µM"}
    ]},
    {"smiles": "CCOc1ccc(NS(=O)(=O)c2ccc3c(c2)CN(C(=O)Nc2ccc(C(C)(C)C)cc2)C3)c(F)c1", "values": [
      {"measurement": "IC50", "setting": "[1]", "value": 5.2, "unit": "µM"}
    ]},
    {"smiles": "CC(C)(C)c1ccc(CCN2CCc3cc(S(=O)(=O)Nc4ccc(F)cc4)ccc3C2)cc1", "values": [
      {"measurement": "IC50", "setting": "[1]", "value": 1.52, "unit": "µM"},
      {"measurement": "IC50", "setting": "[2]", "value": 1.17, "unit": "µM"},
      {"measurement": "solubility", "setting": "[3]", "value": 641, "unit": "µg/mL"},
      {"measurement": "solubility", "setting": "[4]", "value": 385, "unit": "µg/mL"},
      {"measurement": "metabolised at 0.25 h", "setting": "[5]", "value": 14.6, "unit": "%"},
      {"measurement": "metabolised at 0.25 h", "setting": "[6]", "value": 47.8, "unit": "%"},
      {"measurement": "Cmax", "setting": "[7]", "value": 1200, "unit": "ng/mL"},
      {"measurement": "AUC(0-t) at 4 h", "setting": "[8]", "value": 1810, "unit": "ng·h/mL"},
      {"measurement": "inhibition in vivo at 100 mg/kg", "setting": "Mus musculus", "value": 57, "unit": "%"}
    ]},
    {"smiles": "CC(C)(C)c1ccc(NC(=O)N2Cc3ccc(S(=O)(=O)Nc4ccc(F)cc4F)cc3C2)cc1", "values": [
      {"measurement": "IC50", "setting": "[1]", "value": 0.685, "unit": "µM"}
    ]},
    {"smiles": "CC(C)(C)c1ccc(NC(=O)N2Cc3ccc(S(=O)(=O)Nc4ccc(F)cc4)cc3C2)cc1", "values": [
      {"measurement": "IC50", "setting": "[1]", "value": 0.594, "unit": "µM"},
      {"measurement": "IC50", "setting": "[2]", "value": 1.31, "unit": "µM"},
      {"measurement": "solubility", "setting": "[3]", "value": "< 0.07", "unit": "µg/mL"},
      {"measurement": "metabolised at 0.25 h", "setting": "[5]", "value": 12.3, "unit": "%"},
      {"measurement": "metabolised at 0.25 h", "setting": "[6]", "value": 70.9, "unit": "%"}
    ]},
    {"smiles": "CC(C)(C)c1ccc(NC(=O)N2Cc3ccc(S(=O)(=O)Nc4ccc(F)cc4Cl)cc3C2)cc1", "values": [
      {"measurement": "IC50", "setting": "[1]", "value": 1.11, "unit": "µM"}
    ]},
    {"smiles": "CC(C)(C)c1ccc(CCN2Cc3ccc(S(=O)(=O)Nc4ccc(F)cc4)cc3C2)cc1", "values": [
      {"measurement": "IC50", "setting": "[1]", "value": 2.12, "unit": "µM"},
      {"measurement": "solubility", "setting": "[3]", "value": 270, "unit": "µg/mL"}
    ]},
    {"smiles": "CC(C)(C)c1ccc(CC(=O)N2Cc3ccc(S(=O)(=O)Nc4ccc(F)cc4)cc3C2)cc1", "values": [
      {"measurement": "IC50", "setting": "[1]", "value": 8.07, "unit": "µM"},
      {"measurement": "solubility", "setting": "[3]", "value": "< 0.11", "unit": "µg/mL"}
    ]},
    {"smiles": "COc1cc(F)ccc1NS(=O)(=O)c1ccc2c(c1)CN(C(=O)Nc1ccc(C(C)(C)C)cc1)C2", "values": [
      {"measurement": "solubility", "setting": "[3]", "value": 0.607, "unit": "µg/mL"},
      {"measurement": "solubility", "setting": "[4]", "value": 28.3, "unit": "µg/mL"},
      {"measurement": "metabolised at 0.25 h", "setting": "[5]", "value": 43.1, "unit": "%"},
      {"measurement": "metabolised at 0.25 h", "setting": "[6]", "value": 60.6, "unit": "%"},
      {"measurement": "Cmax", "setting": "[7]", "value": 94.3, "unit": "ng/mL"},
      {"measurement": "AUC(0-t) at 4 h", "setting": "[8]", "value": 134, "unit": "ng·h/mL"}
    ]},
    {"smiles": "CCCCCOc1ccc(NS(=O)(=O)c2ccc3c(c2)CN(C(=O)Nc2ccc(C(C)(C)C)cc2)C3)c(F)c1", "values": [
      {"measurement": "solubility", "setting": "[3]", "value": "< 0.06", "unit": "µg/mL"},
      {"measurement": "solubility", "setting": "[4]", "value": 10.2, "unit": "µg/mL"},
      {"measurement": "metabolised at 0.25 h", "setting": "[5]", "value": 0.1, "unit": "%"},
      {"measurement": "metabolised at 0.25 h", "setting": "[6]", "value": 12.6, "unit": "%"}
    ]},
    {"smiles": "CCOc1cc(F)ccc1NS(=O)(=O)c1ccc2c(c1)CN(C(=O)Nc1ccc(C(C)(C)C)cc1)C2", "values": [
      {"measurement": "IC50", "setting": "[1]", "value": 0.733, "unit": "µM"}
    ]},
    {"smiles": "COc1ccc(NS(=O)(=O)c2ccc3c(c2)CN(C(=O)Nc2ccc(C(C)(C)C)cc2)C3)c(OC)c1", "values": [
      {"measurement": "IC50", "setting": "[1]", "value": 3.16, "unit": "µM"}
    ]},
    {"smiles": "COc1ccc(NS(=O)(=O)c2ccc3c(c2)CN(C(=O)Nc2ccc(C(C)(C)C)cc2)C3)c(F)c1", "values": [
      {"measurement": "solubility", "setting": "[3]", "value": "< 0.06", "unit": "µg/mL"},
      {"measurement": "solubility", "setting": "[4]", "value": 0.783, "unit": "µg/mL"},
      {"measurement": "metabolised at 0.25 h", "setting": "[5]", "value": 20.6, "unit": "%"},
      {"measurement": "metabolised at 0.25 h", "setting": "[6]", "value": 51.1, "unit": "%"}
    ]},
    {"smiles": "CCCCOc1ccc(NS(=O)(=O)c2ccc3c(c2)CN(C(=O)Nc2ccc(C(C)(C)C)cc2)C3)c(F)c1", "values": [
      {"measurement": "IC50", "setting": "[1]", "value": 0.547, "unit": "µM"}
    ]},
    {"smiles": "CCc1cc(F)ccc1NS(=O)(=O)c1ccc2c(c1)CN(C(=O)Nc1ccc(C(C)(C)C)cc1)C2", "values": [
      {"measurement": "IC50", "setting": "[1]", "value": 2.49, "unit": "µM"}
    ]}
  ]
}
